The test relates to 18900 transformants (soybean plants). Description: Herbicide resistance of soybean transformants with stacked ADSS Q289N gene. The class given is in vivo. To be noted: soybean transformed with 18900 (Rhodobacter CrtI + Arabidopsis ADSS Q289N). An excerpt:
In order to test expression of stacked genes when phytoene desaturease is used as selectable marker, we constructed several vectors with Anemonia majano cyan fluorescent protein gene AmCyan and herbicide resistance (ADSS) or detoxification (cytochrome P450) genes as examples. Binary transformation vector 18340 (FIG. 7) contains Gloeobacter CrtI expression cassette linked to an AmCyan expression cassette. 18340 was derived from insertion of prCMP-AmCyan-tNOS cassette into 18239. Similarly, binary transformation vector 18341 (FIG. 8) contains Rhodobacter CrtI and AmCyan expression cassettes and was constructed by inserting the prCMP-AmCyan-tNOS cassette into 18238. 18900 (FIG. 9) is a binary vector containing Rhodobacter CrtI expression cassette linked with an Arabidopsis adenylosuccinate synthase (ADSS) Q289N mutant expression cassette under the control of prCMP promoter. 18932 (FIG. 10) is a binary vector containing Rhodobacter CrtI expression cassette and an expression cassette for rice cytochrome P450 monooxygenase gene (Genbank accession # OSJNBb0048A17.18) under the control of prCMP promoter. […]
Binary vectors 18340, […], 18900 and 18932 were transformed into soybean plants using norfurazon as selection agent. […] 18932 transformants were evaluated for their resistance against HPPD herbicide mesotrione.

As to `O=C1NC(=O)[C@]2(N1)O[C@H](CO)[C@@H](O)[C@H]2O` [hydantocidin], the “resistance of transformants to herbicidal compound” value was “resistant”.

Source of the values: US20140342913A1, “GENES PROVIDING TOLERANCE TO PDS INHIBITORS” (SYNGENTA PARTICIPATIONS AG, priority 2013, published 2014).
